Assay [1] in a line: Inhibition of RANKL-induced C57BL/6 mouse bone marrow monocytes differentiation into osteoclasts at 0.5 uM after 6 days in presence of M-CSF by tartrate-resistant acid phosphatase staining based assay relative to control. The assay is classed as functional. As to conditions: C57BL/6, Bone marrow monocyte, 144 h.
A short description of assay [2]: Inhibition of RANKL-induced C57BL/6 mouse bone marrow monocytes differentiation into osteoclasts at 10 uM after 6 days in presence of M-CSF by tartrate-resistant acid phosphatase staining based assay relative to control. The assay is classed as functional. As to conditions: C57BL/6, Bone marrow monocyte, 144 h.
Assay [3] can be described thus: Inhibition of RANKL-induced C57BL/6 mouse bone marrow monocytes differentiation into osteoclasts at 2 uM after 6 days in presence of M-CSF by tartrate-resistant acid phosphatase staining based assay relative to control. It is filed as functional. As to conditions: C57BL/6, Bone marrow monocyte, 144 h.
Assay [4] is described as follows: Inhibition of RANKL-induced C57BL/6 mouse bone marrow monocytes differentiation into osteoclasts at 0.1 uM after 6 days in presence of M-CSF by tartrate-resistant acid phosphatase staining based assay relative to control. The assay is classed as functional. As to conditions: C57BL/6, Bone marrow monocyte, 144 h.
Assay [5] in a line: Inhibition of RANKL-induced C57BL/6 mouse bone marrow macrophage differentiation into osteoclasts in presence of M-CSF by tartrate-resistant acid phosphatase staining based assay. It is filed as functional, cell-based. The following applies: C57BL/6, BMDM.
Assay [6] can be described thus: Inhibition of RANKL-induced C57BL/6 mouse bone marrow monocytes differentiation into osteoclasts after 6 days in presence of M-CSF by tartrate-resistant acid phosphatase staining based assay. As to conditions: C57BL/6, Bone marrow monocyte, 144 h. The assay is classed as functional, cell-based.
A short description of assay [7]: Potency index, ratio of maslinic acid IC50 to compound IC50 for RANKL-induced C57BL/6 mouse bone marrow monocytes differentiation into osteoclasts. It is filed as functional, Bone marrow monocyte.

The source of these data is ChEMBL document CHEMBL4038270, “Synthesis of heterocyclic ring-fused tricyclic diterpene analogs as novel inhibitors of RANKL-induced osteoclastogenesis and bone resorption” (Eur J Med Chem, 2017).

A word on the inhibition: it is how much of the control response was suppressed. What is called IC50 is the concentration that inhibits the measured activity by half.

As to `COc1ccc2c(c1)[C@@]1(C)Cc3nccnc3C(C)(C)[C@@H]1CC2`, in assay [1], the inhibition at 0.5 µM was determined as 34.3%. Also, the inhibition at 10 µM in assay [2] is 98.2%. Further, the inhibition at 2 µM in assay [3] stood at 66.9%.

Consider `COc1ccc2c(c1)[C@@]1(C)Cc3cncnc3C(C)(C)[C@@H]1CC2`, for which, in assay [1], the inhibition at 0.5 µM is 51.1%. Besides, in assay [2], the inhibition at 10 µM came out at 99.5%. The inhibition at 2 µM in assay [3] is 83%.

As for `COc1ccc2c(c1)[C@@]1(C)Cc3cnc(C)nc3C(C)(C)[C@@H]1CC2`, the inhibition at 0.5 µM in assay [1] turned out to be 45.2%. The inhibition at 10 µM in assay [2] amounted to 98.5%. In addition, in assay [3], the inhibition at 2 µM stood at 76%.

Take `COc1ccc2c(c1)[C@@]1(C)Cc3nc(N)sc3C(C)(C)[C@@H]1CC2`: in assay [1], the inhibition at 0.5 µM amounted to 29.8%. Also, the inhibition at 10 µM in assay [2] was determined as 98.2%. Moreover, the inhibition at 2 µM in assay [3] is 35.8%.

Turning to `COc1ccc2c(c1)[C@@]1(C)Cc3c([nH]c4ccccc34)C(C)(C)[C@@H]1CC2`, the inhibition at 0.5 µM in assay [1] worked out at 57.6%. Also, the inhibition at 10 µM in assay [2] was found to be 88.9%. Also, in assay [3], the inhibition at 2 µM was determined as 74.3%.

As for `CCCNC(=O)c1cc2c(cc1OC)[C@@]1(C)Cc3nc(C)oc3C(C)(C)[C@@H]1CC2`, the inhibition at 0.5 µM in assay [1] was 62.8%. The inhibition at 2 µM in assay [3] is 100%. Also, the inhibition at 0.1 µM in assay [4] was determined as 38.1%.

In the case of `COc1cc2c(cc1C(N)=O)CC[C@H]1C(C)(C)c3oc(C)nc3C[C@]21C`, in assay [1], the inhibition at 0.5 µM was 30.9%. Moreover, the inhibition at 2 µM in assay [3] worked out at 57%. For the same molecule, the inhibition at 0.1 µM in assay [4] stood at 10.2%.

`CCNC(=O)c1cc2c(cc1OC)[C@@]1(C)Cc3nc(C)oc3C(C)(C)[C@@H]1CC2`: the inhibition at 0.5 µM in assay [1] is 70%. Also, the inhibition at 2 µM in assay [3] stood at 98.2%. In assay [4], the inhibition at 0.1 µM came out at 56.1%.

As to `COC(=O)c1noc2c1C[C@]1(C)c3cc(OC)ccc3CC[C@H]1C2(C)C`, the inhibition at 0.5 µM in assay [1] stood at 34.8%. The inhibition at 10 µM in assay [2] turned out to be 100%. For the same molecule, the inhibition at 2 µM in assay [3] was 43.7%.

In the case of `CC1(C)[C@H](O)CC[C@]2(C)[C@@H]1CC[C@]13CC4C[C@](O)(C1)[C@@H]4C[C@H]32`, in assay [5], the 50% inhibitory concentration (IC50) turned out to be 20 µM.

`COc1cc2c(cc1NC(C)=O)CC[C@H]1C(C)(C)c3oc(C)nc3C[C@]21C`: the inhibition at 0.5 µM in assay [1] was 44.1%. The inhibition at 2 µM in assay [3] came to 66.1%. Moreover, in assay [4], the inhibition at 0.1 µM amounted to 26.9%.

Consider `COc1cc2c(cc1C(=O)N(C)C)CC[C@H]1C(C)(C)c3oc(C)nc3C[C@]21C`, for which the inhibition at 0.5 µM in assay [1] is 70.1%. Further, in assay [3], the inhibition at 2 µM came to 89.2%. For the same molecule, the inhibition at 0.1 µM in assay [4] was determined as 53.1%.

With `COc1cc2c(cc1C(=O)O)CC[C@H]1C(C)(C)c3oc(C)nc3C[C@]21C`, the inhibition at 0.5 µM in assay [1] was 45.2%. Further, the inhibition at 2 µM in assay [3] came out at 67.8%. Further, in assay [4], the inhibition at 0.1 µM was 22.6%.

As for `COc1cc2c(cc1C(C)=O)CC[C@H]1C(C)(C)c3oc(C)nc3C[C@]21C`, the inhibition at 0.5 µM in assay [1] was found to be 64.5%. For the same molecule, the inhibition at 2 µM in assay [3] amounted to 100%. For the same molecule, the inhibition at 0.1 µM in assay [4] was 30.6%.

Regarding `COc1ccc2c(c1)[C@@]1(C)Cc3c(CO)noc3C(C)(C)[C@@H]1CC2`, the inhibition at 0.5 µM in assay [1] is 43.4%. For the same molecule, the inhibition at 10 µM in assay [2] came to 91.4%. The inhibition at 2 µM in assay [3] worked out at 51.7%.

With `COc1ccc2c(c1)[C@@]1(C)Cc3nc(C)oc3C(C)(C)[C@@H]1CC2`, the 50% inhibitory concentration (IC50) in assay [6] is 0.33 µM. The inhibition at 0.5 µM in assay [1] came to 75%. Also, the inhibition at 10 µM in assay [2] came out at 100%. Moreover, in assay [7], the “Ratio IC50” value turned out to be 2. Moreover, the inhibition at 2 µM in assay [3] stood at 99.2%. Besides, in assay [4], the inhibition at 0.1 µM was determined as 42.9%.

Take `CC1(C)C(=O)CC[C@]2(C)[C@@H]1CC[C@@]13C[C@@H]4[C@@H](C[C@H]12)[C@]4(C(=O)O)C3`: the concentration for half-maximal inhibition (IC50) in assay [5] turned out to be 4 µM.

With `CCOC(=O)c1noc2c1C[C@]1(C)c3cc(OC)ccc3CC[C@H]1C2(C)C`, the inhibition at 0.5 µM in assay [1] was determined as 49.5%. The inhibition at 10 µM in assay [2] is 100%. Besides, in assay [3], the inhibition at 2 µM is 88.6%.

`COc1cc2c(cc1/C(C)=N/O)CC[C@H]1C(C)(C)c3oc(C)nc3C[C@]21C`: in assay [1], the inhibition at 0.5 µM turned out to be 42.7%. In addition, in assay [3], the inhibition at 2 µM was 70%. Moreover, the inhibition at 0.1 µM in assay [4] worked out at 26.9%.

Regarding `CCNC(=O)c1noc2c1C[C@]1(C)c3cc(OC)ccc3CC[C@H]1C2(C)C`, in assay [1], the inhibition at 0.5 µM came to 33.6%. In addition, in assay [2], the inhibition at 10 µM turned out to be 84.3%. In addition, the inhibition at 2 µM in assay [3] amounted to 42.4%.

`COc1ccc2c(c1)[C@@]1(C)Cc3cnc(N)nc3C(C)(C)[C@@H]1CC2`: in assay [1], the inhibition at 0.5 µM worked out at 38.6%. Besides, the inhibition at 10 µM in assay [2] came to 96.2%. For the same molecule, in assay [3], the inhibition at 2 µM stood at 64.6%.

On to `CC1(C)CC[C@]2(C(=O)O)CC[C@]3(C)C(=CC[C@@H]4[C@@]5(C)C[C@@H](O)[C@H](O)C(C)(C)[C@@H]5CC[C@]43C)[C@@H]2C1` [MASLINIC ACID], for which the IC50 in assay [6] was 0.63 µM. Further, in assay [1], the inhibition at 0.5 µM came to 48.6%. Moreover, in assay [2], the inhibition at 10 µM came out at 76.3%. Moreover, in assay [3], the inhibition at 2 µM came out at 59.7%.

With `COc1ccc2c(c1)[C@@]1(C)Cc3cnoc3C(C)(C)[C@@H]1CC2`, in assay [6], the IC50 was 7.5 µM. Moreover, the inhibition at 0.5 µM in assay [1] was 1.5%. Further, the inhibition at 10 µM in assay [2] was 59.1%. Besides, the inhibition at 2 µM in assay [3] was 15.9%.

In the case of `CCCC(=O)c1cc2c(cc1OC)[C@@]1(C)Cc3nc(C)oc3C(C)(C)[C@@H]1CC2`, the inhibition at 0.5 µM in assay [1] is 55.6%. Besides, in assay [3], the inhibition at 2 µM worked out at 83.6%. Besides, the inhibition at 0.1 µM in assay [4] turned out to be 30%.

In the case of `COc1ccc2c(c1)[C@@]1(C)Cc3c(n[nH]c3C(=O)O)C(C)(C)[C@@H]1CC2`, the inhibition at 0.5 µM in assay [1] stood at 43.9%. Moreover, the inhibition at 10 µM in assay [2] stood at 56.1%. Further, in assay [3], the inhibition at 2 µM was found to be 57.2%.

For `CC1(C)[C@H](O)C(=O)C[C@]2(C)[C@@H]1CC[C@]13CC4C[C@](O)(C1)[C@@H]4C[C@H]32`, in assay [5], the half-maximal inhibitory concentration (IC50) turned out to be 15 µM.

For the molecule `COc1ccc2c(c1)[C@@]1(C)Cc3snnc3C(C)(C)[C@@H]1CC2`, the inhibition at 0.5 µM in assay [1] was 66.7%. For the same molecule, the inhibition at 10 µM in assay [2] was found to be 97.2%. Also, the inhibition at 2 µM in assay [3] turned out to be 76.8%.

Regarding `CCC(=O)c1cc2c(cc1OC)[C@@]1(C)Cc3nc(C)oc3C(C)(C)[C@@H]1CC2`, the inhibition at 0.5 µM in assay [1] came to 64.1%. Moreover, the inhibition at 2 µM in assay [3] came to 91.3%. Besides, in assay [4], the inhibition at 0.1 µM was determined as 32.5%.

`CCOC(=O)c1[nH]nc2c1C[C@]1(C)c3cc(OC)ccc3CC[C@H]1C2(C)C`: in assay [1], the inhibition at 0.5 µM came to 61.6%. Moreover, the inhibition at 10 µM in assay [2] came to 93.7%. Further, the inhibition at 2 µM in assay [3] is 71.7%.

`CCCOC(=O)c1noc2c1C[C@]1(C)c3cc(OC)ccc3CC[C@H]1C2(C)C`: the inhibition at 0.5 µM in assay [1] came to 34.8%. In addition, in assay [2], the inhibition at 10 µM came to 100%. Besides, the inhibition at 2 µM in assay [3] turned out to be 41.4%.

With `COc1ccc2c(c1)[C@@]1(C)Cc3c[nH]nc3C(C)(C)[C@@H]1CC2`, the inhibition at 0.5 µM in assay [1] was found to be 4.3%. For the same molecule, the inhibition at 10 µM in assay [2] was determined as 10.1%. Moreover, the inhibition at 2 µM in assay [3] was 8.1%.

With `CNC(=O)c1cc2c(cc1O)[C@@]1(C)Cc3nc(C)oc3C(C)(C)[C@@H]1CC2`, the inhibition at 0.5 µM in assay [1] turned out to be 87.6%. In addition, in assay [3], the inhibition at 2 µM is 96.6%. For the same molecule, in assay [4], the inhibition at 0.1 µM is 64.1%.

Take `COc1cc2c(cc1N)CC[C@H]1C(C)(C)c3oc(C)nc3C[C@]21C`: the inhibition at 0.5 µM in assay [1] was determined as 54.8%. Also, the inhibition at 2 µM in assay [3] was found to be 77.7%. Besides, the inhibition at 0.1 µM in assay [4] was 27.1%.

In the case of `CNC(=O)c1noc2c1C[C@]1(C)c3cc(OC)ccc3CC[C@H]1C2(C)C`, the inhibition at 0.5 µM in assay [1] stood at 28.6%. Besides, in assay [2], the inhibition at 10 µM was found to be 100%. Besides, the inhibition at 2 µM in assay [3] was determined as 52.8%.

As to `COc1ccc2c(c1)[C@@]1(C)Cc3c(C(=O)O)noc3C(C)(C)[C@@H]1CC2`, the inhibition at 0.5 µM in assay [1] was determined as 55.1%. In addition, the inhibition at 10 µM in assay [2] was determined as 77.9%. In addition, the inhibition at 2 µM in assay [3] was 66.8%.

For the molecule `CCCCNC(=O)c1cc2c(cc1OC)[C@@]1(C)Cc3nc(C)oc3C(C)(C)[C@@H]1CC2`, the inhibition at 0.5 µM in assay [1] was 37.8%. Also, in assay [3], the inhibition at 2 µM was 88.6%. Moreover, in assay [4], the inhibition at 0.1 µM was 34.5%.
